Source: US11046699B2, “Pyrazolo-pyrimidin-amino-cycloalkyl compounds and their therapeutic uses” (RAPT THERAPEUTICS, INC., priority 2018, dated 2021)

biological target: GCN2 (Homo sapiens, UniProt Q9P2K8); assay: GCN2 enzymatic endpoint assay: phosphorylation of GFP-eIF2α measured by TR-FRET (Lanthascreen); format: biochemical; conditions: tested as described in Example 77; compound and/or hydrochloride, dihydrochloride or trifluoroacetic acid salt; read-out: IC 50 Activity
Procedure, shortened: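 Reaction started with 2 μM ATP and 80 nM GFP-labelled eIF2α substrate at room temperature, stopped with EDTA after 90 minutes. Phospho-eIF2α detected by terbium-labelled antibody TR-FRET; activity taken as 520 nm (fluorescein) to 495 nm (terbium) emission ratio.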

GCN2, sequence (Q9P2K8 whole entry): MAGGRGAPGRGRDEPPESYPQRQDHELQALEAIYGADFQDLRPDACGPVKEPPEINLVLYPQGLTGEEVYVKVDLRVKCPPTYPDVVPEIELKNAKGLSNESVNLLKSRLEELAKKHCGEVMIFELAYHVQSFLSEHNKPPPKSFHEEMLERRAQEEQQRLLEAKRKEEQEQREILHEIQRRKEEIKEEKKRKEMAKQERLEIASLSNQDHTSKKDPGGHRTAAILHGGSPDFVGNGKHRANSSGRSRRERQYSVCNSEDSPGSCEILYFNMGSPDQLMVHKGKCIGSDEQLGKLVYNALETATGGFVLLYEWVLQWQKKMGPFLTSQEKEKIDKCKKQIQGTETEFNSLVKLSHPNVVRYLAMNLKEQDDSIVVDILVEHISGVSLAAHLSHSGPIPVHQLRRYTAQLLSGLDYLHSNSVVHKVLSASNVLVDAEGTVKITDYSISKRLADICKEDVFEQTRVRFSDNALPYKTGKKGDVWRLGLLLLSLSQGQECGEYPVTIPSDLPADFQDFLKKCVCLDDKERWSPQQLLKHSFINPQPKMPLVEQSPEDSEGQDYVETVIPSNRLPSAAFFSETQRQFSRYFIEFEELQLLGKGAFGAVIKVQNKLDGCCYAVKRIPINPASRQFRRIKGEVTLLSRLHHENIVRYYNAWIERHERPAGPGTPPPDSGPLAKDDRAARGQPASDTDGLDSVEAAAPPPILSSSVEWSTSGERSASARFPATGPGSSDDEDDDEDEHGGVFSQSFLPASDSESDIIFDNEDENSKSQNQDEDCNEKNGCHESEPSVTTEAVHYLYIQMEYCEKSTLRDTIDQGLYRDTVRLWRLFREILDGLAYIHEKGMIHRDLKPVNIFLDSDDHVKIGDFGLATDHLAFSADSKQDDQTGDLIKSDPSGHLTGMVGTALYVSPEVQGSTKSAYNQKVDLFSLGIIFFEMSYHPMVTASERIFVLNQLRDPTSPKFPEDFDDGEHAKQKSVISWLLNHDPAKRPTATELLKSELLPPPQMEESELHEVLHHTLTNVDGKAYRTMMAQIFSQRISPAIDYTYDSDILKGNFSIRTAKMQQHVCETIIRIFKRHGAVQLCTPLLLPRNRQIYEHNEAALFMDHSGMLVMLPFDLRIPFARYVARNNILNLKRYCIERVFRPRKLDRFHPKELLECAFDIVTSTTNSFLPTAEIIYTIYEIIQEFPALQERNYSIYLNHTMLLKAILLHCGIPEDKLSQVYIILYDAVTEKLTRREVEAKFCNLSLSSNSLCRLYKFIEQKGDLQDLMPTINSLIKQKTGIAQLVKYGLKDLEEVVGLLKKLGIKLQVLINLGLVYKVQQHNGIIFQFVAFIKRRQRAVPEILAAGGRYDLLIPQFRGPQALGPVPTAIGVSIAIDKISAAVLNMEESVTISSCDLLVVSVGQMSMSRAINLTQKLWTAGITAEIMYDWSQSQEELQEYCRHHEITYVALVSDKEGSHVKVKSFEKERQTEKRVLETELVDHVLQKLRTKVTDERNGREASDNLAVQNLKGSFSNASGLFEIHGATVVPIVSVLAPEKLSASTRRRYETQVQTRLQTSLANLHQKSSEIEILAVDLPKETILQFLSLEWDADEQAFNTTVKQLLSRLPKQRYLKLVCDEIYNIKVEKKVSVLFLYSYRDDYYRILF

IC50 | SMILES
25 to 200 nM | CCc1nnc(-c2ccc(-n3nc(Br)c4cnc(N[C@@H]5CC[C@@](C)(C(=O)NC)C5)nc43)cc2)s1 [(1R,3R)-3-[[3-bromo-1-[4-(5-ethyl-1,3,4-thiadiazol-2-yl)phenyl]pyrazolo[3,4-d]pyrimidin-6-yl]amino]-N,1-dimethyl-cyclopentanecarboxamide]
25 to 200 nM | CNC(=O)[C@]1(C)CC[C@@H](Nc2ncc3c(Br)nn(-c4cc(CCNC(=O)C(C)C)c5ncccc5c4)c3n2)C1 [(1R,3R)-3-[[3-bromo-1-[8-[2-(2-methyl-propanoylamino)ethyl]-6-quinolyl]pyrazolo [3,4-d]pyrimidin-6-yl]amino]-N,1-dimethyl-cyclopentanecarboxamide]
25 to 200 nM | O=C([C@@H]1CC[C@@H](Nc2ncc3c(Br)nn(-c4ccc5ncccc5c4)c3n2)C1)N1CC(N2CCS(=O)(=O)CC2)C1 [((1R,3R)-3-((3-bromo-1-(quinolin-6-yl)-1H-pyrazolo[3,4-d]pyrimidin-6-yl)amino)cyclo-pentyl)(3-(1,1-dioxidothiomorpholino)azetidin-1-yl)methanone]
25 to 200 nM | CNC(=O)[C@]1(C)CC[C@@H](Nc2ncc3c(Br)nn(-c4ccc(-c5noc(C)n5)cc4)c3n2)C1 [(1R,3R)-3-[[3-bromo-1-[4-(5-methyl-1,2,4-oxadiazol-3-yl)phenyl]pyrazolo [3,4-d]pyrimidin-6-yl]amino]-N,1-dimethyl-cyclopentanecarboxamide]
< 25 nM | N#Cc1cc(-n2nc(Br)c3cnc(N[C@@H]4CC[C@@H](C(=O)N[C@H]5CCNC5)C4)nc32)cc2cccnc12 [(1R,3R)-3-((3-bromo-1-(8-cyanoquinolin-6-yl)-1H-pyrazolo[3,4-d]pyrimidin-6-yl)amino)-N-((S)-pyrrolidin-3-yl)cyclopentane-1-carboxamide]
< 25 nM | Cc1nnc(-c2ccc(-n3nc(Br)c4cnc(N[C@@H]5CC[C@](C(=O)N6CCNCC6)(C(C)C)C5)nc43)cc2CCC#N)s1 [3-[5-[3-bromo-6-[[(1R,3R)-3-isopropyl-3-(piperazine-1-carbonyl)cyclopentyl]amino]pyrazolo[3,4-d]pyrimidin-1-yl]-2-(5-methyl-1,3,4-thiadiazol-2-yl)phenyl] propanenitrile]
25 to 200 nM | CNC(=O)[C@]1(C)CC[C@@H](Nc2ncc3c(Br)nn(-c4cc(Cl)cc([C@H]5COC(=O)N5)c4)c3n2)C1 [(1R,3R)-3-[[3-bromo-1-[3-chloro-5-[(4S)-2-oxooxazolidin-4-yl]phenyl]pyrazolo[3,4-d]pyrimidin-6-yl]amino]-N,1-dimethyl-cyclopentanecarboxamide]
25 to 200 nM | CNC(=O)[C@H]1C[C@H](Nc2ncc3c(Br)nn(-c4ccc(-c5nnc(C)s5)cc4)c3n2)CO1 [(2R,4S)-4-[[3-bromo-1-[4-(5-methyl-1,3,4-thiadiazol-2-yl)phenyl]pyrazolo [3,4-d]pyrimidin-6-yl]amino]-N-methyl-tetrahydrofuran-2-carboxamide]
25 to 200 nM | COCCNC(=O)[C@@H]1CC[C@@H](Nc2ncc3c(Br)nn(-c4ccc5ncc(F)cc5c4)c3n2)C1 [(1R,3R)-3-((3-bromo-1-(3-fluoroquinolin-6-yl)-1H-pyrazolo[3,4-d]pyrimidin-6-yl)amino)-N-(2-methoxyethyl)cyclopentane-1-carboxamide]
25 to 200 nM | Cc1nnc(-c2ccc(-n3nc(Br)c4cnc(N[C@@H]5CC[C@@](C)(C(=O)NCC(F)F)C5)nc43)cc2CCC#N)s1 [(1R,3R)-3-[[3-bromo-1-[3-(2-cyanoethyl)-4-(5-methyl-1,3,4-thiadiazol-2-yl)phenyl]pyrazolo[3,4-d]pyrimidin-6-yl]amino]-N-(2,2-difluoroethyl)-1-methyl-cyclopentanecarboxamide]

SMILES | IC50
CNC(=O)[C@]1(C#N)CC[C@@H](Nc2ncc3c(Br)nn(-c4ccc(-c5nnc(C)s5)c(CCC#N)c4)c3n2)C1 | 25 to 200 nM
CNC(=O)[C@]1(C)CC[C@@H](Nc2ncc3c(Br)nn(-c4cc(Cl)cc(CCS(C)(=O)=O)c4)c3n2)C1 | 25 to 200 nM
Cc1nnc(-c2ccc(-n3nc(Br)c4cnc(N[C@@H]5CCC(C)(CP(C)(C)=O)C5)nc43)cc2CCC#N)s1 (stereo partly shown) | 25 to 200 nM
